Source: PMC6430685 (Nature chemical biology, 2019)

Molecular target: BAX (Homo sapiens, UniProt Q07812)
Format: biochemical

BAX, sequence (Q07812 whole entry): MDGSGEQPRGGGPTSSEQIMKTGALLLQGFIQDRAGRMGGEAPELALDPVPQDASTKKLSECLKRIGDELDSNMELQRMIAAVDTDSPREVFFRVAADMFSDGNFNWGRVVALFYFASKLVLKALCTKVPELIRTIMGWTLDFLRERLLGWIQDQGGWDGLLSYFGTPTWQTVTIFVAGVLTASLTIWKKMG

OC(CN1CCNCC1)Cn1c2ccccc2c2ccccc21 (stereo not shown) [BAI3]
fold lower activity compared to BAI1: ~ 7 fold
